Test results as given in patent US10118936B2, “Arginase inhibitors and methods of use” (ASTRAZENECA AB, priority 2009, dated 2018).
Entries after “also recorded” stand apart in the source; their conditions may differ. Counter-ions that a name gives are not always drawn.

Legend:
[1] = target: T1, human arginase II (hArgII) (Homo sapiens, UniProt P78540); assay: QuantiChrom colorimetric arginase inhibition assay, human arginase II; assay type: biochemical; details: IC50 from 12-concentration curve converted to Ki by Cheng-Prusoff equation
T1 sequence (P78540 23-354): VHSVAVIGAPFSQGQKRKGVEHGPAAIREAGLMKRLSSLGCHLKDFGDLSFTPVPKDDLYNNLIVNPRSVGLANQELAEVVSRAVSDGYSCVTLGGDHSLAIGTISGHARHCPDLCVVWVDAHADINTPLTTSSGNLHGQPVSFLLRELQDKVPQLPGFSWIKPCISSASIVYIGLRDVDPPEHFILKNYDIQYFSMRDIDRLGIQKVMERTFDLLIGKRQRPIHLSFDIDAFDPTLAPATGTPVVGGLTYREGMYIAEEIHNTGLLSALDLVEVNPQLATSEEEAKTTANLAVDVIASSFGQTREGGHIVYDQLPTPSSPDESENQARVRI
Method: (§1) Quantitative determination of arginase activity was performed by a colorimetric method using the QuantiChrom™ Arginase Assay Kit available from BioAssay Systems (Hayward, Calif., Catalog No. DARG-200), which was used according to the manufacture's protocol. Briefly, the method utilizes a chromogen that forms a colored complex specifically with urea produced in the arginase reaction. […] The intensity of the color is directly proportional to the arginase activity in the sample.
(§2) The rate of urea production was measured in the presence of twelve different concentrations of each potential inhibitor compound. The half maximal inhibitory concentration (IC50) was determined by constructing a dose-response curve. As IC50 values are dependent upon the measurement conditions, the IC50 values are converted to the inhibitor binding affinity (Ki) using the Cheng-Prusoff equation and the measured affinity constant (Km) of L-arginine.

human arginase I (hArgI) = target: T2, human arginase I (hArgI) (Homo sapiens, UniProt P05089); assay: QuantiChrom colorimetric arginase inhibition assay, human arginase I; assay type: biochemical; details: IC50 from 12-concentration curve converted to Ki by Cheng-Prusoff equation
T2 sequence (P05089 1-322): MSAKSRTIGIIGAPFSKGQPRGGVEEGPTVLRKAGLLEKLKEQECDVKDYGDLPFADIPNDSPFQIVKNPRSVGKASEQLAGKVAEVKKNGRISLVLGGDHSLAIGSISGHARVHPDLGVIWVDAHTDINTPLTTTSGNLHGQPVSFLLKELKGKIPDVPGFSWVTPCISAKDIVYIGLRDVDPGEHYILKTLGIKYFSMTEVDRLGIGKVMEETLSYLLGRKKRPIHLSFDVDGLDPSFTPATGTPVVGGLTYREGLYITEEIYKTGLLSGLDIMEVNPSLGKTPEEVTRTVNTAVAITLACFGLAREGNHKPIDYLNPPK
Method: as §1, §2

arginase = assay: Arginase inhibition, potency comparisons (isoform not stated); assay type: biochemical, human; details: relative potency statements in text
Method: Quantitative determination of arginase activity was performed by a colorimetric method using the QuantiChrom™ Arginase Assay Kit available from BioAssay Systems (Hayward, Calif., Catalog No. DARG-200), which was used according to the manufacture's protocol. Briefly, the method utilizes a chromogen that forms a colored complex specifically with urea produced in the arginase reaction. See, Mellerup, “Colorimetric method for rapid determination of serum arginase,” Clin. Chem. 13, 900-08 (1967). The intensity of the color is directly proportional to the arginase activity in the sample.
The rate of urea production was measured in the presence of twelve different concentrations of each potential inhibitor compound. The half maximal inhibitory concentration (IC50) was determined by constructing a dose-response curve. As IC50 values are dependent upon the measurement conditions, the IC50 values are converted to the inhibitor binding affinity (Ki) using the Cheng-Prusoff equation and the measured affinity constant (Km) of L-arginine. See, e.g., Cheng et al., “Relationship between the inhibition constant (K1) and the concentration of inhibitor which causes 50 percent inhibition (I50) of an enzymatic reaction,” Biochem. Pharmacol. 22, 3099-108 (1973).
In Table 6, the Ki values reflect the potency of these molecules to inhibit the catalytic activity of arginase to produce urea from the substrate L-arginine. […] That is, racemic materials were compared to racemic controls. Thus, there are several examples that have similar potencies to Rac-ABH.
Shortening the alkyl chain by one carbon atom as in the phenoxyethyl compound 1ad also results in a potency loss. Thus, there appears to be definitive structure-activity features that results in increased potency at the molecular target, arginase, in these α,α-disubstituted derivatives.

[2] = tested on: opossum internal anal sphincter muscle; details: cited from earlier work
erectile response = details: live male rabbits; cited from earlier work
[3] = tested on: corpus cavernosum of the diabetic person; details: ex vivo; cited from earlier work
[4] = tested on: genitalia engorgement response; details: live female rabbits; cited from earlier work
[5] = tested on: airway hyperresponsiveness; details: guinea pigs, allergic asthma model, nebulizer treatment; cited from earlier work
[6] = tested on: experimental autoimmune encephalomyelitis; details: cited from earlier work
[7] = tested on: rabbit and human penile corpus cavernosum; details: cited from earlier work
[8] = cited from earlier work
microvasculature = details: subcutaneous administration in humans; cited from earlier work

| Molecule | Ki [1] [nM] | Ki (human arginase I (hArgI)) [nM] | other results |
| --- | --- | --- | --- |
| NC(CCCCB(O)O)C(=O)O (racemic) [Rac-ABH, reference compound] | 10 to 100 | 0.1 to 10 |  |
| N[C@@](CO)(CCCCB(O)O)C(=O)O (single isomer, unassigned) [Compound 1ar] | 0.1 to 10 | 0.1 to 10 | potency as arginase inhibitor, compared in words (arginase): most potency as an arginase inhibitor by two orders of magnitude compared to compound 1as; also recorded: as potent as ABH; also recorded: almost two orders of magnitude) more potent than the other enantiomer |
| N[C@](CO)(CCCCB(O)O)C(=O)O (single isomer, unassigned) [Compound 1as] | 100 to 500 | 100 to 500 |  |
| N[C@@H](CCCCB(O)O)C(=O)O [ABH, 2(S)-amino-6-borono-hexanoic acid] | 0.1 to 10 | 0.1 to 10 | relaxation of internal anal sphincter muscle [2]: relax this muscle; erectile response (erectile response): enhances the erectile response in live male rabbits; NO biosynthesis [3]: restores NO biosynthesis; engorgement response in the genitalia [4]: enhances the engorgement response in the genitalia of live female rabbits; airway hyperresponsiveness [5]: prevents airway hyperresponsiveness; disease score [6]: improves the disease score of animals; NO-dependent relaxation of corpus cavernosum [7]: enhances the NO-dependent relaxation of this tissue |
| NC(CCCCB(O)O)(Cc1ccccc1)C(=O)O (stereo not shown) [Compound 1a, 2-Amino-2-benzyl-6-boronohexanoic acid hydrochloride] | 100 to 500 | 100 to 500 |  |
| Cl.NC(CCCCB(O)O)(CCOCc1ccccc1)C(=O)O (stereo not shown) [Compound 1aa, 2-Amino-2-(benzyloxyethyl)-6-boronohexanoic acid hydrochloride] | 10 to 100 | 10 to 100 | potency as arginase inhibitor, compared in words (arginase): potency is lost |
| NC(CCCCB(O)O)(CCOc1cccc(Cl)c1)C(=O)O (stereo not shown) [Compound 1ad, 2-Amino-6-borono-2-(2-(3-chlorophenoxy)ethyl)hexanoic acid] | 10 to 100 | 10 to 100 | potency as arginase inhibitor, compared in words (arginase): potency loss |
| Cl.NC(CCCO)(CCCCB(O)O)C(=O)O (stereo not shown) [Compound 1ak, 2-Amino-6-borono-2-(3-hydroxypropyl)hexanoic acid hydrochloride] |  |  | potency as arginase inhibitor, compared in words (arginase): less potent |
| CC(N)(CCCCB(O)O)C(=O)O (stereo not shown) [Compound 1ao, 2-Amino-6-borono-2-methylhexanoic acid hydrochloride] | 10 to 100 | 0.1 to 10 |  |
| CC(C)CC(N)(CCCCB(O)O)C(=O)O (stereo not shown) [Compound 1ap, 2-Amino-6-borono-2-isobutylhexanoic acid hydrochloride] | 10 to 100 | 10 to 100 |  |
| NC(CO)(CCCCB(O)O)C(=O)O (stereo not shown) [Compound 1aq, 2-Amino-6-borono-2-(hydroxymethyl)hexanoic acid hydrochloride] | 10 to 100 | 0.1 to 10 |  |
| CCC(=O)CC(N)(CCCCB(O)O)C(=O)O (stereo not shown) [Compound 1aw, 2-Amino-6-borono-2-(2-oxobutyl)hexanoic acid hydrochloride] | 10 to 100 | 10 to 100 |  |
| NC(CCCCB(O)O)(CC(=O)c1ccccc1)C(=O)O (stereo not shown) [Compound 1ax, 2-Amino-6-borono-2-(2-oxo-2-phenylethyl)hexanoic acid hydrochloride] | 10 to 100 | 10 to 100 |  |
| NC(CCCCB(O)O)(CCCC1CCNCC1)C(=O)O (stereo not shown) [Compound 1az, 2-Amino-6-borono-2-(3-(piperidin-4-yl)propyl)hexanoic acid] | 0.1 to 10 | 0.1 to 10 |  |
| NC(CCCCB(O)O)(CCCN1CCNCC1)C(=O)O (stereo not shown) [Compound 1ba] | 10 to 100 | 10 to 100 |  |
| NCCCCC(N)(CCCCB(O)O)C(=O)O (stereo not shown) [Compound 1bb, 2,6-Diamino-2-(4-boronobutyl)hexanoic acid] | 0.1 to 10 | 0.1 to 10 |  |
| Cl.NC(CCCCB(O)O)(CCCOc1ccccc1)C(=O)O (stereo not shown) [Compound 1d, 2-Amino-6-(borono-2-(3-phenoxypropyl)hexanoic acid hydrochloride] | 0.1 to 10 | 0.1 to 10 |  |
| Cl.NC(CCCCB(O)O)(CCCOc1ccccc1)C(=O)O (stereo not shown) [Compound 1d] |  |  | potency as arginase inhibitor, compared in words (arginase): as potent as Rac-ABH |
| NC(CCCCB(O)O)(CCCCc1ccccc1)C(=O)O (stereo not shown) [Compound 1e, 2-Amino-6-borono-2-(4-phenylbutyl)hexanoic acid] | 10 to 100 | 10 to 100 |  |
| NC(CCCCB(O)O)(CCCOc1ccc(F)cc1)C(=O)O (stereo not shown) [Compound 1h, 2-Amino-6-borono-2-(3-(4-fluorophenoxy)propyl)hexanoic acid] | 10 to 100 | 0.1 to 10 |  |
| N#Cc1ccc(C(=O)NCCOCCC(N)(CCCCB(O)O)C(=O)O)cc1 (stereo not shown) [Compound 38a, 2-Amino-6-borono-2-(2-(2-(4-cyanobenzamid)ethoxy)ethyl)hexanoic acid trifluoroacetate] | 10 to 100 | 10 to 100 |  |
| CC(=O)NCCOCCC(N)(CCCCB(O)O)C(=O)O (stereo not shown) [Compound 38b, 2-(2-(2-Acetamidoethoxy)ethyl)-2-amino-6-boronohexanoic acid] | 100 to 500 | 100 to 500 |  |
| COc1cccc(NC(=O)NCCOCCC(N)(CCCCB(O)O)C(=O)O)c1 (stereo not shown) [Compound 39a, 2-Amino-6-borono-2-(2-(2-(3-(3-methoxyphenyl)ureido)ethoxy)ethyl)hexanoic acid] | 10 to 100 | 10 to 100 |  |
| COc1cccc(NC(=O)N2CCN(CCCC(N)(CCCCB(O)O)C(=O)O)CC2)c1 (stereo not shown) [Compound 39c, 2-Amino-6-borono-2-(3-(4-(3-methoxyphenylcarbamoyl)piperazin-1-yl)propyl)hexanoic acid] | 10 to 100 | 10 to 100 |  |
| Cc1ccc(S(=O)(=O)NCCCCC(N)(CCCCB(O)O)C(=O)O)cc1 (stereo not shown) [Compound 40a, 2-Amino-6-borono-2-(4-(4-methylphenylsulfonamido)butyl)hexanoic acid] | 10 to 100 | 10 to 100 |  |
| CC(N)(CCNC(N)=NO)C(=O)O (stereo not shown) [Compound 54a, 2-Amino-4-(2-hydroxyguanidino)-2-methylbutanoic acid dihydrochloride] | 100 to 500 | 100 to 500 |  |
| N=C(NO)NCC[C@H](N)C(=O)O [Nor-NOHA, N^ω-hydroxy-nor-1-arginine, reference compound] | 100 to 500 |  |  |
| O=C1CCc2ccccc2O1 [dihydrocoumarin] |  |  | half-life ([8]; 37° C. in the stomach): about 1 hour |
| CC[C@H](C)C(=O)O[C@H]1C[C@@H](C)C=C2C=C[C@H](C)[C@H](CC[C@@H]3C[C@@H](O)CC(=O)O3)[C@H]21 [lovastatin, reference compound] |  |  | half-life of lactone hydrolysis ([8]; gastric pH and temperature): about 1 hour |
| S-(2-boronoethyl)-1-cysteine [BEC] |  |  | vasodilation and circulation (microvasculature): vasodilatory and enhances circulation |
